{
  "source": "patent US20250049902A1",
  "about": "“Method of Developing a Peptide-Based Vaccine Conjugated with 1V209” (VERSITECH LIMITED, priority 2021, published 2025)",
  "origin": "cited, not measured here",
  "key": {"[1]": {"system": "antigen specific immune responses", "details": "small molecule simply mixed with antigens, ref [3]"}, "TLR7 pathway": {"system": "TLR7 pathway", "details": "reported, ref [3]"}},
  "data": [
    {"smiles": "COCCOc1nc(N)c2[nH]c(=O)n(Cc3ccc(C(=O)O)cc3)c2n1", "note": "[1V209, 4-[[6-Amino-7,8-dihydro-2-(2-methoxyethoxy)-8-oxo-9H-purin-9-yl]methyl]-benzoic acid]", "values": [
      {"measurement": "induction of antigen specific immune responses", "setting": "[1]", "result": "can hardly induce antigen specific immune responses"},
      {"measurement": "TLR7 pathway stimulation", "setting": "TLR7 pathway", "result": "can stimulate the TLR7 pathway as an agonist"}
    ]}
  ]
}
